Assay results as given in ChEMBL document CHEMBL1201862, “PubChem BioAssay data set” (2004).
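Exposure lasted 48 hours, with cells grown in 96-well plates and compounds tested at five concentrations. The concentration for 50% growth inhibition is given as GI50.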 Calls of active or inactive are those of the source. Rule as the data show it: active = GI50 up to about 1.1 µM and inactive = higher.

How the values were obtained:
Assay in all cases: NCI tumour cell line growth inhibition, 48 h
A549 = tested on: A549
BT-549 = tested on: BT-549
EKVX = tested on: EKVX
HT-29 = tested on: HT-29
KM12 = tested on: KM12
MCF7 = tested on: MCF7
MDA-MB-435 = tested on: MDA-MB-435
MDA-N = tested on: MDA-N
MOLT-4 = tested on: MOLT-4
NCI-H23 = tested on: NCI-H23
NCI-H522 = tested on: NCI-H522
OVCAR-3 = tested on: OVCAR-3
OVCAR-5 = tested on: OVCAR-5
RXF 393 = tested on: RXF 393
SK-OV-3 = tested on: SK-OV-3
SNB-19 = tested on: SNB-19
SR = tested on: SR
T47D = tested on: T47D
TK-10 = tested on: TK-10
U-251 = tested on: U-251

| SMILES | GI50 (A549) | GI50 (BT-549) | GI50 (EKVX) | GI50 (HT-29) | GI50 (KM12) | GI50 (MCF7) | GI50 (MDA-MB-435) | GI50 (MDA-N) | GI50 (MOLT-4) | GI50 (NCI-H23) | GI50 (NCI-H522) | GI50 (OVCAR-3) | GI50 (OVCAR-5) | GI50 (RXF 393) | GI50 (SK-OV-3) | GI50 (SNB-19) | GI50 (SR) | GI50 (T47D) | GI50 (TK-10) | GI50 (U-251) |
| --- | --- | --- | --- | --- | --- | --- | --- | --- | --- | --- | --- | --- | --- | --- | --- | --- | --- | --- | --- | --- |
| O=c1[nH]c(Cc2ccccc2)nc2c1sc1nc3ccccc3n12 | > 100 µM (inactive) | > 100 µM (inactive) | > 100 µM (inactive) | > 100 µM (inactive) | > 100 µM (inactive) | > 100 µM (inactive) | > 100 µM (inactive) | > 100 µM (inactive) | > 100 µM (inactive) | > 100 µM (inactive) | > 100 µM (inactive) | > 100 µM (inactive) | > 100 µM (inactive) | > 100 µM (inactive) | > 100 µM (inactive) | > 58.3 µM (inactive) | > 100 µM (inactive) | 60.5 µM (inactive) | > 100 µM (inactive) | > 100 µM (inactive) |
| CCN(CC)CCCNc1nnc(C)c2[nH]c3ccccc3c12 | 17.8 µM (inactive) | 21.6 µM (inactive) | 18.7 µM (inactive) | 6.49 µM (inactive) | 11.4 µM (inactive) | 3.61 µM (inactive) | 11.6 µM (inactive) | 13.7 µM (inactive) | 4.1 µM (inactive) | 15.5 µM (inactive) | 5.7 µM (inactive) | 11.7 µM (inactive) | 19.6 µM (inactive) | 17.7 µM (inactive) | 11 µM (inactive) | 19.3 µM (inactive) | 7.13 µM (inactive) | 12.7 µM (inactive) | 20.2 µM (inactive) | 13.4 µM (inactive) |
| N/C(=N\Nc1ccc(C(=O)O)cc1)c1cnccn1 | > 100 µM (inactive) | > 100 µM (inactive) | > 100 µM (inactive) | > 100 µM (inactive) | > 100 µM (inactive) | > 100 µM (inactive) | > 100 µM (inactive) | > 100 µM (inactive) | > 100 µM (inactive) | > 100 µM (inactive) | > 100 µM (inactive) | > 100 µM (inactive) | > 100 µM (inactive) | > 100 µM (inactive) | > 100 µM (inactive) | > 100 µM (inactive) | > 100 µM (inactive) | > 100 µM (inactive) | > 100 µM (inactive) | > 100 µM (inactive) |
| Cc1cc(C)n(CN(Cn2nc(C)cc2C)c2ccccc2)n1 | 26.8 µM (inactive) | 21.8 µM (inactive) | 24.7 µM (inactive) | 17.6 µM (inactive) | 16 µM (inactive) | 23.1 µM (inactive) | 13.7 µM (inactive) | 14.5 µM (inactive) | 10.5 µM (inactive) | 18.1 µM (inactive) | 23.2 µM (inactive) | 30.5 µM (inactive) | 30.1 µM (inactive) | 19.3 µM (inactive) | 40.9 µM (inactive) | 45.5 µM (inactive) | 0.217 µM (active) | 23.7 µM (inactive) | 46.1 µM (inactive) | 17.8 µM (inactive) |
| CC(C)c1cc(C(C)C)c(B(c2ccccc2)c2ccccc2)c(C(C)C)c1Br | > 100 µM (inactive) | > 100 µM (inactive) | > 100 µM (inactive) | > 100 µM (inactive) | > 100 µM (inactive) | > 100 µM (inactive) | > 100 µM (inactive) | > 100 µM (inactive) | > 100 µM (inactive) | > 100 µM (inactive) | > 100 µM (inactive) | > 100 µM (inactive) | > 100 µM (inactive) | > 100 µM (inactive) | > 100 µM (inactive) | > 100 µM (inactive) | > 100 µM (inactive) | > 100 µM (inactive) | > 100 µM (inactive) | > 100 µM (inactive) |
| CCOC(=O)NN(C(=O)OCC)C(=C(c1ccccc1)N1CCOCC1)N(NC(=O)OCC)C(=O)OCC | > 100 µM (inactive) | > 100 µM (inactive) | > 100 µM (inactive) | > 100 µM (inactive) | > 100 µM (inactive) | > 100 µM (inactive) | > 100 µM (inactive) | > 100 µM (inactive) | > 100 µM (inactive) | > 100 µM (inactive) | > 100 µM (inactive) | > 100 µM (inactive) | > 100 µM (inactive) | > 100 µM (inactive) | > 100 µM (inactive) | > 100 µM (inactive) | > 100 µM (inactive) | > 100 µM (inactive) | > 100 µM (inactive) | > 100 µM (inactive) |
| CN(CCNC(=O)c1n[nH]c2c1ccc1ccccc12)CCNC(=O)c1n[nH]c2c1ccc1ccccc12 | 2.07 µM (inactive) | 20.2 µM (inactive) | 1.63 µM (inactive) | 2.01 µM (inactive) | 2.14 µM (inactive) | 1.87 µM (inactive) | 1.79 µM (inactive) | 1.86 µM (inactive) | 2.77 µM (inactive) | 1.96 µM (inactive) | 1.95 µM (inactive) | 2.05 µM (inactive) | 1.81 µM (inactive) | 1.94 µM (inactive) | 4.79 µM (inactive) | 1.89 µM (inactive) | 1.78 µM (inactive) | 2.42 µM (inactive) | 2.25 µM (inactive) | 1.93 µM (inactive) |
| Cc1ccc(S(=O)(=O)NNC(=O)c2cc(C)ccc2NC(=O)C23CC4CC(CC(C4)C2)C3)cc1 | 29.4 µM (inactive) | > 100 µM (inactive) | 60 µM (inactive) | > 100 µM (inactive) | 75.3 µM (inactive) | 37.2 µM (inactive) | 61.9 µM (inactive) | > 100 µM (inactive) | > 100 µM (inactive) | 36.1 µM (inactive) | 20.2 µM (inactive) | 34.4 µM (inactive) | > 100 µM (inactive) | 25.4 µM (inactive) | 22.6 µM (inactive) | 16.9 µM (inactive) | 84.5 µM (inactive) | 22.2 µM (inactive) | 41.8 µM (inactive) | 27.6 µM (inactive) |
| CCCCCCCCCCCCCCC(C(=O)[O-])[n+]1ccccc1 (stereo not given) | > 100 µM (inactive) | > 100 µM (inactive) | > 100 µM (inactive) | > 100 µM (inactive) | > 100 µM (inactive) | 16.1 µM (inactive) | > 100 µM (inactive) | > 100 µM (inactive) | > 100 µM (inactive) | > 100 µM (inactive) | > 100 µM (inactive) | > 100 µM (inactive) | 84.1 µM (inactive) | 20.4 µM (inactive) | > 100 µM (inactive) | > 100 µM (inactive) | > 100 µM (inactive) | > 100 µM (inactive) | 15.1 µM (inactive) | 28.6 µM (inactive) |
| O=C(O)c1ccc2c(c1)CC1(C2)Cc2ccccc2C1=O (stereo not given) | > 100 µM (inactive) | > 100 µM (inactive) | > 100 µM (inactive) | > 100 µM (inactive) | > 100 µM (inactive) | > 100 µM (inactive) | > 100 µM (inactive) | > 100 µM (inactive) | > 100 µM (inactive) | > 100 µM (inactive) | > 100 µM (inactive) | > 100 µM (inactive) | > 100 µM (inactive) | > 100 µM (inactive) | > 100 µM (inactive) | > 100 µM (inactive) | > 100 µM (inactive) | > 100 µM (inactive) | > 100 µM (inactive) | > 100 µM (inactive) |
| Nc1ccc2c(c1)nc1n2C(c2c(F)cccc2F)SC1 (stereo not given) | > 100 µM (inactive) | > 100 µM (inactive) | > 100 µM (inactive) | > 100 µM (inactive) | > 100 µM (inactive) | > 100 µM (inactive) | > 100 µM (inactive) | > 100 µM (inactive) | 26.9 µM (inactive) | > 100 µM (inactive) | > 100 µM (inactive) | > 100 µM (inactive) | > 100 µM (inactive) | > 100 µM (inactive) | > 100 µM (inactive) | > 100 µM (inactive) | > 100 µM (inactive) | 76.4 µM (inactive) | > 100 µM (inactive) | > 100 µM (inactive) |
| COc1cc(C2c3[nH]c4ccccc4c3[C@@H](Nc3ccc(C#N)cc3)[C@H]3COC(=O)N23)cc(OC)c1O (stereo not given in full) | 0.113 µM (active) | 0.265 µM (active) | 0.851 µM (active) | 0.3 µM (active) | 0.243 µM (active) | 0.16 µM (active) | 0.388 µM (active) | 0.376 µM (active) | 0.0188 µM (active) | 0.238 µM (active) | 0.175 µM (active) | 0.441 µM (active) | 0.316 µM (active) | 1.16 µM (inactive) | 0.254 µM (active) | 0.235 µM (active) | 0.0113 µM (active) | 0.345 µM (active) | 0.335 µM (active) | 0.175 µM (active) |
| COc1cccc2c1C(=O)c1c(O)c3c(c(O)c1C2=O)C[C@@](O)(C(=O)CO)C[C@@H]3OC1CC(N2CCOCC2C#N)C(O)C(C)O1 (stereo not given in full) | 4.26e-05 µM (active) | 5.39e-05 µM (active) | 0.000227 µM (active) | 2.07e-05 µM (active) | 2.55e-05 µM (active) | 0.0025 µM (active) | 7.4e-05 µM (active) | 9.08e-05 µM (active) | 1.83e-05 µM (active) | 2.45e-05 µM (active) | 3.05e-05 µM (active) | 2.27e-05 µM (active) | 4.98e-05 µM (active) | 1.91e-05 µM (active) | 0.000124 µM (active) | 3.52e-05 µM (active) | 1.27e-05 µM (active) | 0.000102 µM (active) | 0.000149 µM (active) | 3.01e-05 µM (active) |
| Cc1c([N+](=O)[O-])oc2ccc3ccccc3c12 | 66.1 µM (inactive) | > 100 µM (inactive) | 23 µM (inactive) | 14.6 µM (inactive) | 29.9 µM (inactive) | 10.3 µM (inactive) | 12.4 µM (inactive) | 26.9 µM (inactive) | 2.58 µM (inactive) | 11.2 µM (inactive) | 3.86 µM (inactive) | > 100 µM (inactive) | > 100 µM (inactive) | 21.4 µM (inactive) | 20.8 µM (inactive) | > 100 µM (inactive) | 2.9 µM (inactive) | 61.1 µM (inactive) | 37.8 µM (inactive) | 65.6 µM (inactive) |
